Values quoted from earlier work as cited in patent US20200315935A1, “TOPICALLY APPLICABLE CHEMICAL PEEL COMPOSITION” (L'OREAL, priority 2015, published 2020).
Read-outs that look alike come from different tables or passages of the source.

Tests used:
[1] = acute oral toxicity, mutagenicity, skin irritation, skin sensitization, and phototoxicity

Row | Structure (SMILES) | adverse effects in basic toxicological tests ([1]; listed as Phenylethyl resorcinol) | adverse effects in basic toxicological tests ([1]; listed as phenylethyl resorcinol) | pKA
1 | CC(c1ccccc1)c1ccc(O)cc1O (stereo not shown) [Phenylethyl Resorcinol] | not shown adverse effects | not been shown to have adverse effects | 9.77-10.77
2 | Oc1cccc(O)c1 [Resorcinol, reference compound] |  |  | 9.32-9.81
